In PMC8582287 (International journal of antimicrobial agents, 2020):
Entries after “also recorded” stand apart in the source; their conditions may differ. Read-outs that look alike come from different tables or passages of the source.

Assays:
[1] = system: CRL-8155 (lymphocyte) cells; test: Cytotoxicity in CRL-8155 cells, Alamar Blue; type: cell-based, human; conditions: read-out: Cytotoxicity CC50 CRL-8155, 48h
[2] = system: T. gondii oocyst infection; conditions: pregnant CD1 mice, ref [20]; cited from earlier work
[3] = system: zebrafish (Danio rerio) embryos; test: Zebrafish embryo development test with impact score Si; type: in vivo; conditions: for Embryo toxicity in the zebrafish assay (in words) / Lowest concentration exerting a negative Si: 0.2-50 μM; for Embryo toxicity in the zebrafish assay (in words): 96hpf; for Lowest concentration exerting a negative Si: zebrafish embryos, until 96h post fertilization; for Embryonal alterations observed during BKI-exposure: 24h, representative image
[4] = system: human Ether-à-go-go Related Gene (hERG); conditions: cited from earlier work
HepG2 (hepatocyte) cells = test: Cytotoxicity in HepG2 cells, Alamar Blue; type: cell-based, human; conditions: read-out: Cytotoxicity CC50 HEP-G2, 48h
pregnant BALB/c mice [5] = test: Assessment of BKI-interference in pregnancy in non-infected mice; conditions: for Offspring mortality (dead/born pups): 50 mg/kg/day oral gavage for 5 days, follow-up 14 days
pregnant BALB/c mice [6] = conditions: mouse, in vivo, 50 mg/kg/day
[7] = system: human foreskin fibroblasts (HFF); test: Cytotoxicity in human foreskin fibroblasts, Alamar blue; type: cell-based; conditions: read-out: Cytotoxicity CC50 HFF, 3 days, 0.0009-20 μM
N. caninum tachyzoites [8] = conditions: read-out: Proliferation EC50 N.caninum, ref [25]; cited from earlier work
N. caninum tachyzoites [9] = conditions: read-out: Proliferation EC50 N.caninum
[10] = system: Neospora-infected pregnant mice; conditions: 50mg/kg, ref [23]; cited from earlier work
rats = conditions: when dosed in rats; no reference given; cited from earlier work
[11] = 50 mg/kg/day oral gavage in corn oil for 5 days

| Structure (SMILES) | CC50 [1] [µM] | Embryo toxicity in the zebrafish assay (in words) [3] | CC50 (HepG2 (hepatocyte) cells) [µM] | Offspring mortality (dead/born pups) (pregnant BALB/c mice [5]) | CC50 [7] [µM] | EC50 (N. caninum tachyzoites [9]) [µM] | Fertility (pregnant/mated females) (pregnant BALB/c mice [5]; [11]) | other results |
| --- | --- | --- | --- | --- | --- | --- | --- | --- |
| CCOc1ccc2cc(-c3nn(CC4CCN(C)CC4)c4ncnc(N)c34)ccc2c1 [BKI-1294] | > 40 | very low embryo toxicity | > 40 | 0/27 | > 20 | – | – | Offspring survival [2]: 100%; Lowest concentration exerting a negative Si [3]: ≥ 40 µM; Lowest concentration exerting a negative Si ([3]; listed as 1294): 40 µM; hERG inhibition in vitro ([4]; ref [24]): inhibited; Overall number of pups born (pregnant BALB/c mice [6]): 27; Pups/dams (pregnant BALB/c mice [6]; po): 27/4; EC50 (N. caninum tachyzoites [8]): 0.04 µM |
| CCOc1ccc2cc(-c3nn(CC4CCN(C)CC4)c4ncnc(N)c34)ccc2n1 [BKI-1369] | > 80 | very low embryo toxicity | > 80 | 0/31 | > 20 | 0.035 | 5/6 | Pups/dams (pregnant BALB/c mice [5]; [11]): 31/5 |
| CCOc1ccc2cc(-c3nn(C(C)(C)C)c(N)c3C(N)=O)cnc2c1 [BKI-1517] | > 40 | high toxicity at all concentrations | > 40 | – | > 20 | 0.269 | ^*2/7 | Embryonal alterations observed during BKI-exposure ([3]; 20 μM): tail curvature; also recorded: half-hatched embryo; Embryonal alterations observed during BKI-exposure ([3]; 50 μM): pericardial edema; Lowest concentration exerting a negative Si ([3]; listed as 1517): 0,2 μM; Lowest concentration exerting a negative Si ([3]; listed as -1517): 0.2 µM; hERG inhibition in vitro ([4]; no reference given): did not inhibit; Neonatal mortality [10]: 100%; Change in mean arterial pressure (rats): significant change in mean arterial pressure |
